Data from patent US20070254871A1, “Compounds for the Treatment of Inflammation of the Central Nervous System” (Neurotec Pharma, S.L., priority 2004, published 2007).

Test system: microglial reaction in rat hippocampal lesion
Assay: Microglial reaction in rat hippocampal lesion (stereotaxic AMPA injection, IB4 histochemistry)
Type: in vivo
Conditions: for Density of reactive microcytes / Hippocampal microgliosis area: n=4, mean±S.E.M.
Procedure: This model relies on the acute stereotaxic over-activation of rat glutamate hippocampal receptors that results in a neurodegenerative process characterized by a neuronal loss with astroglial and microglial reactions (cf. F. Bernal et al., Hippocampus 2000, vol. 10, pp. 296-304; F. Bernal et al., Exp. Neurol. 2000, vol. 161, pp. 686-95). In this neurodegenerative model rats were anaesthetized with equithesin (a mixture of chloral hydrate and pentobarbital sodium; 0.3 ml/100 g body weight, i.p.) and placed on a Kopf stereotaxic frame with the incisor bar set at −3.3 mm. Intracerebral injections aimed at the dorsal hippocampus were performed at 3.3 mm caudal to bregma, 2.2 mm lateral and 2.9 mm ventral from dura (cf. G. Paxinos et al., “The rat brain in stereotaxic coordinates”, Sydney: Academic Press 1986). A volume of 0.5 μl was injected over a period of 5 min.
Four different groups of rats received two injections in a 2-hour interval as follows: a) sham rats (n=4) received two injections of PBS; b) AMPA rats (α-amino-3-hydroxy-5-methylisoxazole-4-propionic acid) (n=4) received the first injection of 5.4 mM AMPA and the second of PBS; c) diazoxide rats (n=4) received two injections of 50 μM diazoxide; d) AMPA+diazo rats (n=4) received 5.4 mM AMPA+50 μM diazoxide in the first injection and 50 μM diazoxide in the second injection. All rats were sacrificed 24 hours after the lesion.
Rats were transcardially perfused with 300 ml of 0.1 M phosphate buffer (PB, pH 7.4) followed by 300 ml ice-cold fixative (flow rate 20 ml/min). The fixative consisted of 4% (w/v) paraformaldehyde in PB. Brains were removed, crioprotected with 15% (w/v) sucrose in PB and then, frozen with dry ice. Cryostat sections (12 μm) were obtained at the level of dorsal hippocampus (−3.3 mm to bregma). Isolectine B4 (IB4) histochemistry was performed to identify the microglial reaction (cf. C. A. Colton et al., J. Histochem. Cytochem. 1992, vol. 40, pp. 505-12).
Microgliosis area evaluation was performed on IB4 positive stained sections, which were analyzed using a computer-assisted image analysis system (OPTIMAS®, BioScan Inc., Washington, USA). IB4-stained reactive microcytes were counted at ×100 magnification using an ocular grid mounted on a transmission light microscope (Axiolab, Zeiss, Göttingen, Germany). One-way ANOVA was used to compare differences between groups, followed by the LSD post-hoc test. Results were expressed as mean±S.E.M. All analyses were performed with the computer program STATGRAPHICS (STSC Inc., Rockville, Md., USA).

[1] = substance alone injected into dorsal hippocampus (diazoxide: two injections of 50 μM; AMPA: 5.4 mM then PBS), 24 hours
[2] = substance alone injected into dorsal hippocampus (diazoxide: two injections of 50 μM; AMPA: 5.4 mM then PBS), sacrificed 24 hours after the lesion
[3] = AMPA+diazo group: 5.4 mM AMPA+50 μM diazoxide in first injection, 50 μM diazoxide in second, 24 hours

Compound | Density of reactive microcytes [1] [cells/mm^2] | Hippocampal microgliosis area [2] [mm^2] | Microgliosis area as % of the AMPA group (AMPA+diazo group versus AMPA group, 24 hours) [%] | Density of reactive microcytes [3] [cells/mm^2] | Hippocampal microgliosis area [3] [mm^2] | Effect on microglial activation (in words) (diazoxide-treated animals compared with AMPA-treated animals)
Cc1onc(O)c1CC(N)C(=O)O (stereo not drawn) [AMPA, α-amino-3-hydroxy-5-methylisoxazole-4-propionic acid] | 645±59 | 0.44±0.07 | – | – | – | –
CC1=NS(=O)(=O)c2cc(Cl)ccc2N1 [diazoxide] | 555±91 | 0.19±0.03 | 37 | 603±56 | 0.16±0.02 | reduces microglial activation to sham values
